Data taken from US20210395651A1, “COMPOUNDS STABILIZING HYDROLASES IN LIQUIDS” (BASF SE, priority 2018, published 2021).

Molecular target: T1, Lipolase® 100L (Thermomyces lanuginosus, UniProt O59952)
T1 construct: purchased Sigma-Aldrich
T1 sequence (O59952 23-291): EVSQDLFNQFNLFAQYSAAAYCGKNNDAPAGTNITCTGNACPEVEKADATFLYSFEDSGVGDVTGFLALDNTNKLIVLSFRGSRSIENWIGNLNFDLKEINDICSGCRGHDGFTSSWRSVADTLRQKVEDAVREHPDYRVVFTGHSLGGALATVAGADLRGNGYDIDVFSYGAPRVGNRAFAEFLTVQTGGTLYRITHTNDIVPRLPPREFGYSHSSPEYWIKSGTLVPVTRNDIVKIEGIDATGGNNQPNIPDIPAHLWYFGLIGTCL
Assay: Lipase storage stability in liquid formulations at 37° C. (pNP-valerate activity)
Type: biochemical, Thermomyces lanuginosa
Settings: for lipase activity, 3 d: 3 d storage at 37° C.; for lipase activity, 7 d: 7 d storage at 37° C.; for lipase activity, 14 d: 14 d storage at 37° C.; for lipase activity, 21 d: 21 d storage at 37° C.; for lipase activity, 28 d: 28 d storage at 37° C.; for lipase activity, 35 d: 35 d storage at 37° C.; for lipase activity, T0: relative to 100% value of reference formulation at time 0
Procedure: The storage stability of Lipase was assessed at 37° C.
Base test formulations were manufactured by making base formulations I to V by mixing the components according to Table 1.
The respective component (a) or comparative compound was added, if applicable, to the respective base formulation in amounts as indicated in Table 1.
Lipase used: Lipolase® 100L (CAS-No. 9001-62-1, EC-No. 232-619-9) was purchased from Sigma-Aldrich.
The amount of lipase as provided in Table 1 refers to active protein.
Water was added to accomplish the balance to 100.
Lipolase activity at certain points in time as indicated in Table 2 was be determined by employing pNitrophenol-valerate (2.4 mM pNP-C5 in 100 mM Tris pH 8.0, 0.01% Triton X100) as a substrate. The absorption at 405 nm was measured at 20° C. every 30 seconds over 5 minutes.
The slope (absorbance increase at 405 nm per minute) of the time dependent absorption-curve is directly proportional to the activity of the lipase.
The […] activity values provided in Table 2 were calculated referring to the 100% value determined in the reference formulation at the time 0.
The nomenclature of formulations is as follows: the Roman number before the full stop characterizes the base formulation, the Arabian number the type of compound (A.# compound according to invention (component (a)); (B.#) comparative compound).

[1] = base formulation I. (Lipolase 0.2 wt%, tested compound 2.5 wt%)
[2] = base formulation II. (Lipolase 0.2 wt%, tested compound 2.5 wt%)
[3] = base formulation IV. (Lipolase 0.2 wt%, tested compound 2.0 wt%)
[4] = base formulation III. (Lipolase 0.2 wt%, tested compound 2.0 wt%)

Row | Molecule | lipase activity, 3 d [1] [%] | lipase activity, 7 d [1] [%] | lipase activity, 14 d [1] [%] | lipase activity, 21 d [1] [%] | lipase activity, 28 d [1] [%] | lipase activity, 35 d [1] [%] | lipase activity, T0 [1] [%] | lipase activity, 3 d [2] [%] | lipase activity, 7 d [2] [%] | lipase activity, 14 d [2] [%] | lipase activity, 21 d [2] [%] | lipase activity, 28 d [2] [%] | lipase activity, 35 d [2] [%] | lipase activity, T0 [2] [%] | lipase activity, 3 d [3] [%] | lipase activity, 7 d [3] [%] | lipase activity, 14 d [3] [%] | lipase activity, 21 d [3] [%] | lipase activity, 28 d [3] [%] | lipase activity, 35 d [3] [%] | further results
1 | CC(=O)OCC(COC(C)=O)OC(C)=O [B.4, glyceroltriacetate (triacetine), reference compound] | 91 | 84 | 72 | 56 | 45 | 39 | 98 | 87 | 77 | 67 | 56 | 42 | 35 | 95 | 91 | 82 | 73 | 59 | 50 | 46 | lipase activity, T0 [3]: 97%
2 | Diethylcitrate [A.7] | 97 | 91 | 85 | 81 | 76 | 69 | 99 | 94 | 91 | 86 | 82 | 77 | 72 | 99 | 95 | 93 | 88 | 85 | 80 | 74 | lipase activity, 3 d [4]: 96%; lipase activity, 7 d [4]: 93%; lipase activity, 14 d [4]: 87%; lipase activity, 21 d [4]: 83%; lipase activity, 28 d [4]: 77%; lipase activity, 35 d [4]: 72%; lipase activity, T0 [4]: 97%; lipase activity, T0 [3]: 97%
